According to ChEMBL document CHEMBL1201862, “PubChem BioAssay data set” (2004):
The source made the active and inactive calls.

Columns and labels:
SUMO-activating enzyme [1] = target: T1, SUMO-activating enzyme (Homo sapiens, UniProt Q9UBT2); test: inhibitors of in vitro SUMOylation cascade, primary screen, biochemical, HTRF, uHTS (AID 2006); type: protein-complex assay
SUMO-activating enzyme [2] = target: T1, SUMO-activating enzyme; test: SUMOylation inhibitor hit validation, confirmation, SUMOylation inhibitor project, biochemical, AlphaScreen (AID 2018); type: functional
[3] = inhibition of K1F phage lysis, E. coli UTI89, bacterial capsule biogenesis inhibitors, alamar blue (AID 488966); type: functional
Hexokinase = Hexokinase (Trypanosoma brucei, UniProt Q38C41); test: Confirmation assay for inhibitors of Trypanosoma brucei hexokinase 1-Analogue-first series. [Related pubchem assays (depositor defined):AID1430, AID1632, AID2516, AID2560, AID2579, AID2600, AID449725, AID492951]; type: functional
[4] = target: T2, Tyrosine-protein phosphatase non-receptor type 7 (Homo sapiens, UniProt P35236); test: redox-dependent HePTP inhibition, mechanism study, biochemical, fluorescence (AID 2068); type: functional
T2 sequence (P35236 whole entry): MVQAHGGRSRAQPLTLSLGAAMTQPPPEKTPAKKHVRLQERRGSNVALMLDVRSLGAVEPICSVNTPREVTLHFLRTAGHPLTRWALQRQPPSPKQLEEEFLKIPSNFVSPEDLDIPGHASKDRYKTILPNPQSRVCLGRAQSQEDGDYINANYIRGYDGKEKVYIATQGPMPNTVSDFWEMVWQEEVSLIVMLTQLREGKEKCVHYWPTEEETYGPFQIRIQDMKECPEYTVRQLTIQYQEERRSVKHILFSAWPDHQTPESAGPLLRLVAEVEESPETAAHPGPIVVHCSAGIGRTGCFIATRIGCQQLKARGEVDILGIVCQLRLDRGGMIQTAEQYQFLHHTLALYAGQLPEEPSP

Genome polyprotein = Genome polyprotein (dengue virus type 2, UniProt P29990); test: Dengue-2 NS5 methyltransferase inhibitors, primary screen, biochemical, confirmation dose response (AID 588689); type: functional
[5] = target: Induced myeloid leukemia cell differentiation protein Mcl-1 (Homo sapiens, UniProt Q07820); type: functional
[6] = target: T3, Rac GTPase-activating protein 1 (Homo sapiens, UniProt Q9H0H5); test: MgcRacGAP GTPase-activating activity inhibitors, confirmation, biochemical, ADP Hunter fluorescence, primary and confirmatory (AID 624330); type: functional
T3 sequence (Q9H0H5 whole entry): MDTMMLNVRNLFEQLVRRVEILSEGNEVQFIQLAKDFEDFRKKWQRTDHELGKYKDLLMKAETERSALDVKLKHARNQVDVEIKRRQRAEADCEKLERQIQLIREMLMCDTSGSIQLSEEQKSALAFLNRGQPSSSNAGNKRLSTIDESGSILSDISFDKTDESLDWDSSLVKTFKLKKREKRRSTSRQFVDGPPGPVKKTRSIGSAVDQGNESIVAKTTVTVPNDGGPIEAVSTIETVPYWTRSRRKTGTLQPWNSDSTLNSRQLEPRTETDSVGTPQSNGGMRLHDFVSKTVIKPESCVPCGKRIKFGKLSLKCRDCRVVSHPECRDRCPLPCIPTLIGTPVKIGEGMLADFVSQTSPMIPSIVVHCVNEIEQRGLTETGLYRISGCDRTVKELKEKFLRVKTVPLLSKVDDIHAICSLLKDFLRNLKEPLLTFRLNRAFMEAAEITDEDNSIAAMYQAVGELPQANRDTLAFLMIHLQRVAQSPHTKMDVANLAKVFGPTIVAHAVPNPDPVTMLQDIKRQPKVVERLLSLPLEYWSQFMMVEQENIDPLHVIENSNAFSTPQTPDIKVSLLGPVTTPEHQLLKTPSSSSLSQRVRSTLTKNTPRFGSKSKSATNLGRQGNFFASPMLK

[7] = target: Histone-lysine N-methyltransferase NSD2 (Homo sapiens, UniProt O96028); type: biochemical
[8] = target: T4, Polyadenylate-binding protein 1 (Homo sapiens, UniProt P11940); test: PABP1 MLLE–PAM2 binding inhibitor potency, dose response, biochemical, fluorescence polarization, FITC-PAM2 peptide (AID 602259); type: functional; settings: read-out: IC50_Mean
Troponin, cardiac muscle = Troponin, cardiac muscle (Homo sapiens, UniProt P19429+P45379+P63316); test: inhibitors of cardiac thin filament calcium sensitivity, dose response, biochemical, fluorescence, cardiac regulated thin filaments, triplicate IC50 (AID 504742); type: protein-complex assay
[9] = target: T5, Zinc finger protein mex-5 (Caenorhabditis elegans, UniProt Q9XUB2); test: MEX-5/TCR-2 RNA interaction inhibitors, dose response, biochemical, C. elegans, fluorescence polarization (AID 1960)
T5 sequence (Q9XUB2 whole entry): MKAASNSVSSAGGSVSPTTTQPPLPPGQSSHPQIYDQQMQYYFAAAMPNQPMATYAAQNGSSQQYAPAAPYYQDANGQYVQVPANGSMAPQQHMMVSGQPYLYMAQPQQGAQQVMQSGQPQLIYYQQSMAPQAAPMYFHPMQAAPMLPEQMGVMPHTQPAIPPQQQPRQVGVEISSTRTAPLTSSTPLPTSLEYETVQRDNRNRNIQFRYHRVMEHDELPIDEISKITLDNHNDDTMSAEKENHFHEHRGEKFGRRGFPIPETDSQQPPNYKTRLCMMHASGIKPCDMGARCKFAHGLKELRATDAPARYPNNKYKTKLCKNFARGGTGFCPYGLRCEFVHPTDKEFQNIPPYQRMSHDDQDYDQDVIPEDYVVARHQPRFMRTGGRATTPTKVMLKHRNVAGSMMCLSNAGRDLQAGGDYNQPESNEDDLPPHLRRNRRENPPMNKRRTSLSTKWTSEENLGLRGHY

[10] = target: T4, Polyadenylate-binding protein 1; test: PABP1 MLLE–PAM2 interaction inhibitors, dose response, miRNA deadenylation inhibitor project, biochemical, fluorescence polarization, Cy5-PAM2 peptide, secondary (AID 602260); type: functional; settings: read-out: IC50_Mean
[11] = target: T6, RNA-binding protein pos-1 (Caenorhabditis elegans, UniProt G5EF15); test: inhibitors of POS-1/mex-3 RNA binding, dose response, biochemical, fluorescence polarization (AID 1964);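 also: purified POS-1 fused to maltose binding protein made in E. coli; potency of compounds blocking POS-1 binding to fluorescent RNA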
T6 sequence (G5EF15 whole entry): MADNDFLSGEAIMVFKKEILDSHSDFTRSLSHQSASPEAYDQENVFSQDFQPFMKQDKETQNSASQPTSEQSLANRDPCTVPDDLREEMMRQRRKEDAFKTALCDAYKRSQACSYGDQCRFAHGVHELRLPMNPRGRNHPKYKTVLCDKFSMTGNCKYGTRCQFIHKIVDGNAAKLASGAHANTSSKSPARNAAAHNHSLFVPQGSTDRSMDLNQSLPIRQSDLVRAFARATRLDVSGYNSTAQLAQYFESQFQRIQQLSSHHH

T1 sequence (Q9UBE0 whole entry): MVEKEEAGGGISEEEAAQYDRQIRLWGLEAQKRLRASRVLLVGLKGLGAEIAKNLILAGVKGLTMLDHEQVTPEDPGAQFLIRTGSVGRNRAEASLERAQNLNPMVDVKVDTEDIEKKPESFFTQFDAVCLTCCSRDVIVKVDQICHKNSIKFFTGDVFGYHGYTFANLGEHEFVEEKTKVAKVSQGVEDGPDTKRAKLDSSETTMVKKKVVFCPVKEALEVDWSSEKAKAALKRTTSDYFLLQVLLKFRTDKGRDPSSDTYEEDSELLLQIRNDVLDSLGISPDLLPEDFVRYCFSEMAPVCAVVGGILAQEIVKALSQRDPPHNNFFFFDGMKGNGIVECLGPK
T1 sequence (Q9UBT2 whole entry): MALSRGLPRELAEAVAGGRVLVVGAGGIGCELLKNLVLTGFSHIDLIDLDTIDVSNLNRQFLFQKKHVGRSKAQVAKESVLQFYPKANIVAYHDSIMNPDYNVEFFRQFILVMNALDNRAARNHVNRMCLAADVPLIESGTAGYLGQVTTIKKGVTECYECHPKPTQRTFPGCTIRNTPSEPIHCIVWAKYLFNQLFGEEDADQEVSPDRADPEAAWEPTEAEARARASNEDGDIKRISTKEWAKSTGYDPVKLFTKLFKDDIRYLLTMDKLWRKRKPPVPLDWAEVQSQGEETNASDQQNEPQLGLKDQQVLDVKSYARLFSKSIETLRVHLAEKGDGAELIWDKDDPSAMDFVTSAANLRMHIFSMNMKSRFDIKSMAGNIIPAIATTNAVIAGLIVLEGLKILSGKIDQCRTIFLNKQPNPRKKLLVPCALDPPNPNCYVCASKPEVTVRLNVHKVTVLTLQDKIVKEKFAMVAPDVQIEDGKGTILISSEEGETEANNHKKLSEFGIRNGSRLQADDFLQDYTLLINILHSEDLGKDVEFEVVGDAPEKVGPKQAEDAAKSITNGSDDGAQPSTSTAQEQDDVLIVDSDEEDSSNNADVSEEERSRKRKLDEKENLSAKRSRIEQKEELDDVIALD
T4 sequence (P11940 whole entry): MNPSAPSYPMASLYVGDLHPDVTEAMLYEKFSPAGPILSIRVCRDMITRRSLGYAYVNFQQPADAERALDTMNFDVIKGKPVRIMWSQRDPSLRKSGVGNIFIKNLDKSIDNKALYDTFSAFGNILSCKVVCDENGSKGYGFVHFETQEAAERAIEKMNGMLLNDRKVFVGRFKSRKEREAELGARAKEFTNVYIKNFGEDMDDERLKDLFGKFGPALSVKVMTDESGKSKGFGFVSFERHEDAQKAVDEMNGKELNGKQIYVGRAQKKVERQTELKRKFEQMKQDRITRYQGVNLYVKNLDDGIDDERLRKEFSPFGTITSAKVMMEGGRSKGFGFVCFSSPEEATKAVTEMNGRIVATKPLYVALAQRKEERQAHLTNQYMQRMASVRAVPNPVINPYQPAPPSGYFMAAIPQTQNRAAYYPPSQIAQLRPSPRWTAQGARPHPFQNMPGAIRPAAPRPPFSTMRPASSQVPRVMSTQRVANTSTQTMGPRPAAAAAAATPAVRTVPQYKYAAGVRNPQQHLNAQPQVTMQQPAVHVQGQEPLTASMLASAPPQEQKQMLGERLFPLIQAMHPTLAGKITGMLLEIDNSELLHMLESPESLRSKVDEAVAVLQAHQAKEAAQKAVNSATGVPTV
Chain of Genome polyprotein (P29990 2492-3391 limits assumed): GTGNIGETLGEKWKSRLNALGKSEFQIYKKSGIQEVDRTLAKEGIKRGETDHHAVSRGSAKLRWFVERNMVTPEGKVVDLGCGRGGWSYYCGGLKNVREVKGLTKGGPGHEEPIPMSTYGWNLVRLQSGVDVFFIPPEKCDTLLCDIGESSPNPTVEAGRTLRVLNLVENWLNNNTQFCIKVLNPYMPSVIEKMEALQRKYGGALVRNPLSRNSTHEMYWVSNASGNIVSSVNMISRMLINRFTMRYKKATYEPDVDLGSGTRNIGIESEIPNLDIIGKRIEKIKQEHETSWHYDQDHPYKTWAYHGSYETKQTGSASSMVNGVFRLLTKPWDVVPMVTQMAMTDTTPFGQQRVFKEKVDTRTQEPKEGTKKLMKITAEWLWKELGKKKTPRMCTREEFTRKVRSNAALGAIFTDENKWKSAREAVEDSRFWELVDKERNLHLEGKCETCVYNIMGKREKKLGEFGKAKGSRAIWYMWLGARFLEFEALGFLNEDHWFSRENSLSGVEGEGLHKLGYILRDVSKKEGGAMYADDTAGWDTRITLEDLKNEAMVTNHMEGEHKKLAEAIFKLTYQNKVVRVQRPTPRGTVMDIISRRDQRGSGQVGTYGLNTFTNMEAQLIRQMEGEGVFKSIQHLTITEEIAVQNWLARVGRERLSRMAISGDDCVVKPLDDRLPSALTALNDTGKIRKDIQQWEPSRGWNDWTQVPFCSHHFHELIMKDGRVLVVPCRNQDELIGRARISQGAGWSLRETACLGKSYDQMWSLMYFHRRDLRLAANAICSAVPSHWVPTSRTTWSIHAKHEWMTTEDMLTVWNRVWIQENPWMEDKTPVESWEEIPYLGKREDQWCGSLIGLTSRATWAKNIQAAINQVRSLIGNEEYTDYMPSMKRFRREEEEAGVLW
Chain of Histone-lysine N-methyltransferase NSD2 (O96028 whole entry): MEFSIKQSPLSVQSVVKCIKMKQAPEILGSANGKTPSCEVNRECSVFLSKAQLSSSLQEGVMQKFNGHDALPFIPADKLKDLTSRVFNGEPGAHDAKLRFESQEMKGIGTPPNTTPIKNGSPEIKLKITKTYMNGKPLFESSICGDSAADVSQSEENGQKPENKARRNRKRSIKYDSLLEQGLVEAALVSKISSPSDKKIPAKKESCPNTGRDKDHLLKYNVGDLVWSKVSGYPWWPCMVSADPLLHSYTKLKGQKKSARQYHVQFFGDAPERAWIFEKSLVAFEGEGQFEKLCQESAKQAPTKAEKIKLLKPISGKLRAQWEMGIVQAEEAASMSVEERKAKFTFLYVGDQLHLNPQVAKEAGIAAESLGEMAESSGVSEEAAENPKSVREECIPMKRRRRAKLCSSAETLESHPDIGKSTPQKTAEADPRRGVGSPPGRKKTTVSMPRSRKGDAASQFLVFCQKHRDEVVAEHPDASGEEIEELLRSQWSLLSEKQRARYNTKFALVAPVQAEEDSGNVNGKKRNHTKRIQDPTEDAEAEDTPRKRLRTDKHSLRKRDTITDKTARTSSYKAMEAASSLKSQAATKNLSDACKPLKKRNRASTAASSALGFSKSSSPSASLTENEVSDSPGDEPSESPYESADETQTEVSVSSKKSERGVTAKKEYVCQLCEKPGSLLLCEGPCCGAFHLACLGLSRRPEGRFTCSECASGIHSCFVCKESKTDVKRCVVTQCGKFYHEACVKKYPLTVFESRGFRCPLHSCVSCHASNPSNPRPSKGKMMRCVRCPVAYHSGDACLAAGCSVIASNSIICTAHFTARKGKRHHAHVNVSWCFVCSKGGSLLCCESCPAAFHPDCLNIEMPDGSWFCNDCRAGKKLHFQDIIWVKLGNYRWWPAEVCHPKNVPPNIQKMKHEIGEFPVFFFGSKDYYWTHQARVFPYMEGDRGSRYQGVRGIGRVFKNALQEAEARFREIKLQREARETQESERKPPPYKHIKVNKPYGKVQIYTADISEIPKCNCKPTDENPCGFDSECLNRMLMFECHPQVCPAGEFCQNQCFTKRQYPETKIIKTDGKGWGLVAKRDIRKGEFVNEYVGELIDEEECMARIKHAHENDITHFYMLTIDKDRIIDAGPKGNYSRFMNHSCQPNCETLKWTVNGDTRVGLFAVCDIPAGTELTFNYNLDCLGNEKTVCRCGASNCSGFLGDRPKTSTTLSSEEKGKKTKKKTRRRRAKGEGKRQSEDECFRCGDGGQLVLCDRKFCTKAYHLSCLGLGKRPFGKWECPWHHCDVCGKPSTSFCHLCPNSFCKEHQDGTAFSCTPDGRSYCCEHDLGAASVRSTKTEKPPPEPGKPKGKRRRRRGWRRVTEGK
Chain of Hexokinase (Q38C41 whole entry): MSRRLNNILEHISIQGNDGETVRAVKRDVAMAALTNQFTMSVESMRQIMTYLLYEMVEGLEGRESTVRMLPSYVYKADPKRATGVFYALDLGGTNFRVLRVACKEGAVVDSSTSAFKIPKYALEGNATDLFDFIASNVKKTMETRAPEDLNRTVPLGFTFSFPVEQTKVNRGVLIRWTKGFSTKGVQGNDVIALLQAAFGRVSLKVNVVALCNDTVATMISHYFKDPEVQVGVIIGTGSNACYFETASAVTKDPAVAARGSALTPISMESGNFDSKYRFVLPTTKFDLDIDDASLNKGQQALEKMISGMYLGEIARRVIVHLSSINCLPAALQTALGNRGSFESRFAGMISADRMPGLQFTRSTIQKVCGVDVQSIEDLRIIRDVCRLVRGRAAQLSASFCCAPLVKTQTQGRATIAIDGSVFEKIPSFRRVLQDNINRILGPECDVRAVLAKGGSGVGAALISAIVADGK
Chain of Induced myeloid leukemia cell differentiation protein Mcl-1 (Q07820 whole entry): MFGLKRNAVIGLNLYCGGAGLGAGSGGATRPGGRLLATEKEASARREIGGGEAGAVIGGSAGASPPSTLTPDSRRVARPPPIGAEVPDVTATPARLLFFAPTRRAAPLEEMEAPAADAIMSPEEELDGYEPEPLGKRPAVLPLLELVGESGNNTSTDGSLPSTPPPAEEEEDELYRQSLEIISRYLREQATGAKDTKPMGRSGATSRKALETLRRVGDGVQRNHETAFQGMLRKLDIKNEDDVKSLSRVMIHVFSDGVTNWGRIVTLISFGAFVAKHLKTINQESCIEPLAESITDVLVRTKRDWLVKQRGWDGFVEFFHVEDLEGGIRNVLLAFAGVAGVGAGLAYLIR

Which results are given for `C=CCOc1c(Br)cc(/C=C2\SC(Nc3ccccc3)=NC2=O)cc1OC`?
IC50 (SUMO-activating enzyme [1]): 12 µM (active); IC50 (SUMO-activating enzyme [2]): 29.9 µM (active)

For `CCOc1ccc(Br)cc1CSC(=N)N`, which IC50 [3] is on record?
Its IC50 is > 300 µM (active).

For `CN(C)c1ccc(NC(=O)Cn2sc3ccccc3c2=O)cc1`, which IC50 (Hexokinase) is on record?
Its IC50 is 7.29 µM (active).

Which IC50 [4] does the source give for `O=C(NCCc1ccccc1)Nc1ccc2nc(-c3ccco3)c(-c3ccco3)nc2c1` here?
Its IC50 is 0.472 µM (active).

What does the source list for `O=C(O)c1ccc2nc(-c3ccco3)c(-c3ccco3)nc2c1`?
IC50 (Genome polyprotein): 51 µM (active); IC50 [5]: > 54 µM (active); IC50 [6]: 159 µM (active); AC50 [7]: 10.8 µM (active); IC50 [8]: 53.2 µM (inactive); IC50 (Troponin, cardiac muscle): 20.9 µM (inactive); EC50 [9]: 10.1 µM (active); IC50 [10]: > 66 µM (inactive); EC50 [11]: 19.5 µM (inconclusive)
